Results as given in patent publication US20250195491A1 (AEVIS BIO, INC., priority 2022, published 2025).

Key:
Aiolos and Ikaros = Aiolos and Ikaros degradation by immunoblotting in MM.1S cells; type: cell-based, human; settings: immunoblot
Experimental: To this end, the MM.1S cell line was cultured in an RPMI medium (Corning, MD, USA) supplemented with 10% fetal bovine serum (Corning, MD, USA), 100 U/mL of penicillin (Corning, MD, USA), and 100 μg/mL of streptomycin (Corning, MD, USA) at 37° C. in a 5% CO2 incubator. […] The cells were disrupted by adding a RIPA buffer containing a protease inhibitor cocktail (Thermo Fisher Scientific) and centrifuged at 14,000 rpm for 15 minutes at 4° C. to obtain a cell extract. Equal amounts of the cell extract were loaded, and proteins were separated through SDS-PAGE and then transferred to a PVDF membrane. The protein-transferred membrane was blocked using skim milk, incubated with a primary antibody for 3 hours at room temperature, and then incubated with an HRP-conjugated secondary antibody for 1 hour at room temperature. The resulting product was washed with TBS-T three times between steps. Detection was performed using a chemoluminescence reagent (Thermo Fisher Scientific), and confirmed using Chemidoc (iBright CL1500, Invitrogen, CA, USA). Aiolos (#15103), Ikaros (#9034) and GAPDH (#2118S) antibodies used as primary antibodies and a secondary antibody were purchased from Cell Signaling Technology (Danvers, MA, USA).
Additionally, the expression of Aiolos and Ikaros, mediated by 3-MP, was confirmed over time. […]

SALL4 = SALL4 degradation by immunoblotting in Tera-1 cells; type: cell-based, human; settings: 0.000128-10 μM, 4 hours, immunoblot, FIG. 4
From the text: It has been reported that a cereblon (CRBN)-binding therapeutic such as a thalidomide-based compound can cause severe congenital abnormalities such as forelimb shortening or brachydactyly, which are closely associated with the decomposition of SALL4.
To this end, the Tera-1 cell line (HTB-105), which is a human embryonic carcinoma cell line, was purchased from the American Type Culture Collection (ATCC, Manassas, VA, USA) and used, and then cultured using a DMEM medium (Corning, MD, USA) supplemented with 10% fetal bovine serum (Corning, MD, USA), 100 U/mL of penicillin (Corning, MD, USA), and 100 100 μg/mL streptomycin (Corning, MD, USA) at 37° C. in a 5% CO2 incubator.
The cells were disrupted by adding a RIPA buffer containing a protease inhibitor cocktail (Thermo Fisher Scientific), and centrifuged at 14,000 rpm for 15 minutes at 4° C. to obtain a cell extract. Equal amounts of the cell extract were loaded, and proteins were separated by SDS-PAGE and then transferred to a PVDF membrane. The protein-transferred membrane was blocked using skim milk, incubated with a primary antibody for 3 hours at room temperature, and then incubated with an HRP-conjugated secondary antibody for 1 hour at room temperature. The resulting product was washed with TBS-T three times between steps. […]

BV-2 cells = experiment: Nitrite content in culture medium of LPS-stimulated BV-2 cells (Griess); type: cell-based, mouse; settings: BV-2, 30, 10, or 3.33 μM, LPS 1 μg/mL 24 hours, FIG. 6B
Experimental: (§1) To further confirm the oxidative stress suppression effect, the content of nitrite released due to an inflammatory response and the expression levels of iNOS, which is an enzyme that produces nitric oxide, and COX-2, which is cyclooxygenase-2, were determined in mouse microglial cells (BV-2, ATCC, Manassas, VA, USA).
(§2) To determine the content of nitrite and the protein expression levels of iNOS and COX-2, BV-2 was seeded in a 12-well plate (Corning, MD, USA) at 1.5×10^5 cells/well, and cultured using a DMEM medium (Corning, MD, USA) containing 10% fetal bovine serum (Corning, MD, USA) and 100 U/mL of penicillin/streptomycin (Corning, MD, USA) at 37° C. in a 5% CO2 incubator for one day for stabilization. […] 1 μg/mL of LPS (Sigma, USA) was added to all experimental groups excluding the non-inflammation-induced group and allowed to react at 37° C. in a 5% CO2 incubator for 24 hours.
The cell culture solution was collected to measure the content of nitrite, and centrifuged at 3,000 rpm for 5 minutes to obtain a supernatant. The concentration of nitrite in the cell culture was measured using a microplate reader (NEO2MALPHAB Synergy Neo-2, BioTek, CA, US) according to the manual of the Griess Reagent System (#G2930, Promega, WI, USA).

iNOS and COX-2 = iNOS and COX-2 immunoblotting in LPS-stimulated BV-2 cells; type: cell-based, mouse; settings: BV-2, 30, 10, or 3.33 μM, LPS 1 μg/mL 24 hours, FIG. 6C
Experimental: as §1, §2
The cells from which the cell culture medium was removed were disrupted by adding a RIPA buffer containing a protease inhibitor cocktail (Thermo Fisher Scientific), and centrifuged at 14,000 rpm for 15 minutes at 4° C. to obtain a cell extract. Equal amounts of the cell extract were loaded, and proteins were separated through SDS-PAGE and then transferred to a PVDF membrane. […]

## Nc1cccc2c1C(=S)N(C1CCC(=O)NC1=O)C2=O (centres unmarked) [3-MP, 3-thiopomalidomide]
Aiolos and Ikaros; 10 μM, 1, 4, 8, 12, or 24 hours, FIG. 3B
  expression of Aiolos and Ikaros over time: does not reduce the expression of Aiolos and Ikaros
Aiolos and Ikaros; 0.000128-10 μM, 4 hours, FIG. 3A
  expression of Aiolos and Ikaros, by concentration: does not reduce the expression of Aiolos and Ikaros
SALL4
  decomposition of SALL4: less decomposition of SALL4 than pomalidomide
BV-2 cells
  amount of residual nitrite released by LPS: effectively reduced the amount of the residual nitrite released by LPS, compared to pomalidomide
iNOS and COX-2
  expression of oxidative stress-associated proteins (iNOS and COX-2): effectively reduced
